# Data as given in patent US20040232089A1, “Biocidal compounds for treating water” (VANETTA S.p.A., priority 2003, published 2004).
# Legend:
# [1] = Photo-degradability under daylight and UV; type: physicochemical; settings: 10 ppm in drinking water (pH 6,5-7,5)
# Method: Similarly, the same behaviour is confirmed when evaluating the photo-degradability under daylight and UV (the irradiation test is carried out on a solution of 10 ppm in drinking water (pH 6,5-7,5)).
# [2] = tested on: cysts (resting stage) of Scrippsiella trochoidea; experiment: Inhibition of dynoflagellates cysts hatching; type: cell-based; settings: after 6 days
# Description: For this test, cysts (resting stage) of Scrippsiella trochoidea (Dinophyta) were used. Scrippsiella trochoidea (order Peridiniales, subfamily Calciodinelloideae) i.e. a non-toxic autotrophic orthoperidinioid dinoflagellate producing calcareous resting cysts which are abundant in coastal marine sediments. The maturation period for S. trochoidea cysts rang between 2 and 5 weeks.
# S. trochoidea cysts are very convenient for experimental purposes because their sorting and culturing is comparatively easy, the cysts being relatively abundant in sediments.
# Sediments were sampled in Mar Piccolo (Taranto). The utilized method allowed us to pick up the superficial sediment layer of a certain area entirely, where most of the cysts is present. The sample was immediately kept at dark at 4° C. Sediments collected about one year ago were utilized, in order to be sure that the hatching refractoriness period of cysts was finished. The sample (about 2 ml of sediment) was then dissolved in 0,45 μm filtered natural sea-water, sonified for 1 minute (Branson Sonifier) in order to brake sediment clots, resuspended in filtered sea-water and filtered on a Endecotts sieve, with a 20 μm steel mesh. […]
# [3] = tested on: Staphylococcu aureus ATCC 25923; experiment: Microdilution broth MIC/MBC; type: cell-based, Staphylococcus aureus; settings: 24 h at 25° C., dark
# Method: b) Serial dilution test: the antibiotic activity is determined quantitatively by using the known sensitivity of a test strain towards an antibiotic which is expressed numerically as the minimal inhibitory concentration (MIC) and the minimal bactericidal concentration (MBC).
# Procedure: serial dilutions of the antibiotic to be tested are pipetted into the antibiotic broth, this is then inoculated with a defined quantity of the relevant test strain (FIG. 4).
# The Minimum Inhibitory Concentration (MIC) was defined as the lowest concentration of antibiotic which prevented visual turbidity after incubation.
# The Minimum Bactericidal Concentration (MBC) is defined as the lowest concentration of an antibiotic killing the majority of a bacterial inoculum (99.9%, equivalent to a thousand-fold reduction of the inoculum). Method: Following a broth dilution MIC test, from each tube in the dilution series a defined volume (20 μL) is spread onto plates without antibiotics. […] The plates were incubate overnight (longer for slow growing bacteria) and then counted the number of colonies growing from each of the test tubes. The number of colonies corresponding to a thousand-fold reduction (MBC) can be calculated if the colony count of the start inoculum is known. […]
# Antimicrobial assays were performed in dark, and results were read after 24 h of incubation at 25° C. […]
compound,measurement,setting,value
"CC1(S(=O)(=O)O)CC(=O)c2ccccc2C1=O.NC(=O)c1cccnc1 (centres unmarked) [MNB, menadione nicotinamide bisulphite]",Light exp. Tot Degr.,[1],48 h
same,Light exp. ½ life,[1],10 h
same,LC50,[2],"2,65 mg/L"
same,MBC,[3],16 µg/mL
same,MIC,[3],8 µg/mL
